How the values were obtained:
[1] = molecular target: T1, human recombinant cathepsin L (Homo sapiens, UniProt P07711); experiment: Kinetic parameters for inhibition (kobs/I), pseudo-first order; type: biochemical; settings: inhibitor at least 5-fold excess over cathepsin, 100 μM ACC substrate, pH 5.5, 37 °C, average of at least triplicate, S.D. below 20%
T1 construct: with a 100 nM final concentration of each active cathepsin for 30 min; made in house
Procedure: (§1) All kinetic experiments were performed using a CLARIOStar (BMG LABTECH) plate reader operating in fluorescence kinetic mode using 96-well plates (Corning®, Costar®). ACC-labeled fluorescent substrates were screened at 355 nm (excitation) and 460 nm (emission) wavelengths (gain 650). The cathepsin assay buffer was composed of 100 mM sodium acetate, 100 mM sodium chloride, 10 mM DTT, 1 mM EDTA, pH 5.5. All kinetic studies were performed at 37 °C.
(§2) The kinetic parameters of inhibition of three irreversible Cy5/Cy7 labeled ABPs were determined for cathepsins B, L, V, S and K, and the inhibition parameters of CA-074 and CA-074Me were determined for cathepsins B and L. The kobs/I were measured under pseudo-first order reaction conditions. Individual cathepsins were mixed with various concentrations of ABP (at least 5-fold excess over cathepsins) and 100 μM ACC fluorescent substrate. Experiments were repeated at least in triplicate, and the results are presented as an average (S.D. were below 20%).

[2] = molecular target: T2, human recombinant cathepsin B (Homo sapiens, UniProt P07858); experiment: as above; type: biochemical; settings: inhibitor at least 5-fold excess over cathepsin, 100 μM ACC substrate, pH 5.5, 37 °C, average of at least triplicate, S.D. below 20%
T2 construct: made in house
Procedure: as §1, §2

[3] = molecular target: T3, cathepsin B in human cancer cell lines (Homo sapiens, UniProt P07858); experiment: Detection of active cathepsin B in cancer cells using Cy5-labeled MP-CB-2 probe (SDS-PAGE, Western blot); type: cell-based; settings: A-431 cells; E-64d 25 μM; 1 μM MP-CB-2
T3 construct: we were able to label both cathepsin B active forms (single chain 29 kDa, and light chain 6 kDa); endogenous in cells; host or cells: human cancer cell lines (A-431, HCT-116, OVCAR-5, SK-OV-3, MDA-MB-231, U2-OS, PC-3, HeLa and others)
Procedure: 50 000 cells from fourteen adherent cancer cell lines were seeded into 12-well plates and allowed to attach overnight. In parallel, 50 000 cells from four non-adherent cancer cell lines were placed into 12-well plates and cultured overnight. The next day, MP-CB-2 ABP was added to the cells (1 μM final concentration) and incubated for various times (1, 4, 8, 24 hours). Next, cells were harvested, centrifuged at 500 × g for 5 min, cell pellets were washed with 1× DPBS, cells were centrifuged again at 500 × g for 5 min, and the supernatant was discarded. Finally, cell pellets were solubilized in 100 μL of 1× SDS/DTT and boiled for 5 min, cooled to room temperature and sonicated. Each sample (30 μL) was then subjected to SDS-PAGE analysis (4–12% Bis–Tris Plus 10-well gels, 200 V, 30 min), followed by protein transfer onto the membrane (0.2 μm nitrocellulose membrane, 10 V, 60 min). Ponceau S staining verified equal loading and transfer of proteins. Membranes were blocked in 2.5% BSA in TBS-T for 1 hour at room temperature. […] The images were then analyzed with the Image Studio software.
50 000 of selected cancer cells (A-431, HCT-116, OVCAR-5, SK-OV-3, MDA-MB-231, U2-OS, and PC-3) were seeded into 12-well plates and allowed to attach overnight. […] All images were analyzed with Image Studio software.

[4] = molecular target: T4, cathepsin B in cancer cell lysates (Homo sapiens, UniProt P07858); experiment: Cathepsin B activity in cancer cell lysates with Ac-Cha-Leu-Glu(O-Bzl)-Arg-ACC substrate, with inhibitors; type: biochemical; settings: lysates of selected cell lines (HeLa, A431, U2-OS, HCT-116, SKOV-3, MDA-MB-231); inhibitor pre-incubated 15 min; 100 μM substrate
T4 construct: we were able to label both cathepsin B active forms (single chain 29 kDa, and light chain 6 kDa); endogenous in cells; host or cells: human cancer cell lines (A-431, HCT-116, OVCAR-5, SK-OV-3, MDA-MB-231, U2-OS, PC-3, HeLa and others)
Procedure: Cell pellets from 50 000 cells were re-suspended in cathepsin assay buffer containing 0.5% Triton X-100 for cell lysis. Cell lysis was performed on ice for 30 min. After this time, cells were centrifuged at max speed for 5 min, and the supernatant (supplemented with 10 mM DTT) was used for the kinetic assay. In each assay 100 μM of cathepsin B selective substrate Ac-Cha-Leu-Glu(O-Bzl)-Arg-ACC was used, and the reaction progress was monitored for 30 min. In the experiments with inhibitors, cell lysate was pre-incubated with inhibitor for 15 min, followed by substrate addition and kinetic readout. Each measurement was performed three times and the substrate hydrolysis rate (RFU/s) in control (no inhibitor) was set to 100%, and other values were adjusted accordingly.

T1 sequence (P07711 114-333): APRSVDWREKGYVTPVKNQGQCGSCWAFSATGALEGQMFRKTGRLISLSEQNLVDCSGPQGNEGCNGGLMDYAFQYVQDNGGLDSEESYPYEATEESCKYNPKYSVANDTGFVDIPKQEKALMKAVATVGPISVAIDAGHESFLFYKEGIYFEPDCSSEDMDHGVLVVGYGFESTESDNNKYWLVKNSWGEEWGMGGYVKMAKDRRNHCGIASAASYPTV

| Compound | kobs/I Cat-L [1] | kobs/I Cat-B [2] | prevention of cathepsin B labeling by MP-CB-2 on pre-incubation with inhibitor [3] | inhibition of cathepsin B activity in cell lysates [4] |
| --- | --- | --- | --- | --- |
| CCCNC(=O)[C@H]1O[C@@H]1C(=O)N[C@H](C(=O)N1CCC[C@H]1C(=O)OC)[C@@H](C)CC [CA-074Me] | 152 M⁻¹ s⁻¹ | 92 M⁻¹ s⁻¹ | completely prevented |  |
| CCCNC(=O)[C@H]1O[C@@H]1C(=O)N[C@H](C(=O)N1CCC[C@H]1C(=O)O)[C@@H](C)CC [CA-074] | n.i. | 42,000 M^-1s^-1 |  | completely depleted its catalytic activity |

From publication PMC6839509, “Fluorescent probes towards selective cathepsin B detection and visualization in cancer cells and patient samples” (Chemical Science, 2019)
